One data set deals with T1, NPR-B (Mus musculus, UniProt Q6VVW5).
T1 construct: Murine NIH3T3 cells express endogenously the CNP signaling receptor, NPR-B; endogenous in cells; host or cells: NIH3T3 (murine fibroblasts)
T1 sequence (Q6VVW5 17-1047): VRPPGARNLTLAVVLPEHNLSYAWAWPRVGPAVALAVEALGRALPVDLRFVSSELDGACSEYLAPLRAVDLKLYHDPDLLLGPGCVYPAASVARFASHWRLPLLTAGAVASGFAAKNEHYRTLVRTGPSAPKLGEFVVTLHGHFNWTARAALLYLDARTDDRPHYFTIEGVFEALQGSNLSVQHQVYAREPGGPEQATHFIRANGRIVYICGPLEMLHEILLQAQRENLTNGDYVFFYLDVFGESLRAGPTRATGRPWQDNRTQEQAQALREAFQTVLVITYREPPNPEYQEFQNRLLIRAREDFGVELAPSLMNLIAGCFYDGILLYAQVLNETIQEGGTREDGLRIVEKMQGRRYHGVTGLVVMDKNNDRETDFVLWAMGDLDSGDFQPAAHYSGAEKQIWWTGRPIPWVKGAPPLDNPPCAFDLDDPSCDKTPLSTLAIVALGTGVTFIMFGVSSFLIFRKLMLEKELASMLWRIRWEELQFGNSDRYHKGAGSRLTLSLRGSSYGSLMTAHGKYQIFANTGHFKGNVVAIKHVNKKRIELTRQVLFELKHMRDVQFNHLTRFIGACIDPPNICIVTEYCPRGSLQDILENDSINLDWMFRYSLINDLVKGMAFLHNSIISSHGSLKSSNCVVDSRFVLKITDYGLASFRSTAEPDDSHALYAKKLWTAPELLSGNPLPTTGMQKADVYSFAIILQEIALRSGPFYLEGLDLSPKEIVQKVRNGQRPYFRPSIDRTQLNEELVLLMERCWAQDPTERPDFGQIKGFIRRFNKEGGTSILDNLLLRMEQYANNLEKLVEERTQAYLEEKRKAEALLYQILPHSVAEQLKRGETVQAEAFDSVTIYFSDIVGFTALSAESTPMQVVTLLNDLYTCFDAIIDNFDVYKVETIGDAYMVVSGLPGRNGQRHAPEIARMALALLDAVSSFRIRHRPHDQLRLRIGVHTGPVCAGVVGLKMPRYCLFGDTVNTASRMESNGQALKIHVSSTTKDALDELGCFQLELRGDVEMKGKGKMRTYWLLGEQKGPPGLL
Nature of the data set: Stimulation of cGMP production in NIH3T3 cells. It counts as cell-based, Murine. The following applies: for cGMP response relative to 1 uM CNP22 (%) at 0.01 µM: read-out: cGMP Response rel. to 1 uM CNP22, 10 nM; for cGMP response relative to 1 uM CNP22 (%) at 1 µM: read-out: cGMP Response rel. to 1 uM CNP22, 1 uM.

Data set [1] concerns the target neutral endopeptidase (NEP) (Homo sapiens, UniProt P08473). Nature of the data set: In vitro neutral endopeptidase (NEP) cleavage assay. The following applies: human, pH 7. The method, then: To determine the effects of amino acid substitutions, amino acid extensions, backbone modifications, side chain modifications and PEGylation on the susceptibility of CNP variants to neutral endopeptidase (NEP) cleavage, peptide cleavage assays were carried out using an in vitro assay that monitored disappearance of the non-cleaved CNP variant.
Recombinant human NEP (1 ug/mL final concentration) was added to 100 uM CNP variant diluted in 0.1 M Tris, pH 7. The reaction mixture was incubated at 37° C. for various periods of time, and the reaction was quenched with EDTA (10 mM final) followed by heat denaturation. The reaction mixture was reduced and then the reaction products were analyzed using HPLC and mass spectroscopy. The half-life of the CNP variant was calculated based on the disappearance of intact CNP variant over time.

[2] abbreviates: NIH3T3 cells, 10 nM natriuretic peptide, normalized to cell number and cGMP production with 1 uM wtCNP22.
Setting [3] is: NIH3T3 cells, 1 uM natriuretic peptide, normalized to cell number and cGMP production with 1 uM wtCNP22.

Consider 8 compounds from US8377884B2, “Variants of C-type natriuretic peptides” (Biomarin Pharmaceutical Inc., priority 2007, dated 2013).

The structures appear in SMILES notation. Like-named read-outs stand apart in the source and are kept apart here. Bridge positions count the residues as written; N and C are the ends. Peptide text beside a SMILES is read from it. * marks the point of attachment. PEG12 = NCCOCCOCCOCCOCCOCCOCCOCCOCCOCCOCCOCCOCCC(=O)O; Biotin = O=C1N[C@H]2[C@H](CS[C@H]2CCCCC(=O)*)N1; Heptanoyl = CCCCCCC(=O)*

Sequence of neutral endopeptidase (NEP) (P08473 whole entry): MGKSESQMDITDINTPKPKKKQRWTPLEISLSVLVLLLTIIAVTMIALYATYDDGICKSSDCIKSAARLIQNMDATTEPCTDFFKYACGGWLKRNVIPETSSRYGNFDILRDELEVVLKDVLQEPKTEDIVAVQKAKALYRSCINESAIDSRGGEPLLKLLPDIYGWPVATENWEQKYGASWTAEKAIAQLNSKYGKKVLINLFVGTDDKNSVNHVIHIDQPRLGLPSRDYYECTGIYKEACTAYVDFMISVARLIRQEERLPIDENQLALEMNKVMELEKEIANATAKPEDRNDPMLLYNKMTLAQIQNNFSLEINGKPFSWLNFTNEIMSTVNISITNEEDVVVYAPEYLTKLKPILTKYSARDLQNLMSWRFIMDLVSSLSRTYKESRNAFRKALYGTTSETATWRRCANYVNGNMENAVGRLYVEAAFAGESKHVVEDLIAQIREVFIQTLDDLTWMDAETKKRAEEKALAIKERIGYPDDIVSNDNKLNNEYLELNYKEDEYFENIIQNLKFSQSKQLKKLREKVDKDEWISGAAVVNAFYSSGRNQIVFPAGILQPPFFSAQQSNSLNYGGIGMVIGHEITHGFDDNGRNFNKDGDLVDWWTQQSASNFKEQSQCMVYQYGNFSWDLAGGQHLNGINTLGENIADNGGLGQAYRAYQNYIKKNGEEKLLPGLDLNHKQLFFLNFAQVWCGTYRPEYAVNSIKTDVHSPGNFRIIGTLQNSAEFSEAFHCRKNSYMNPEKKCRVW

Broadly, the half-life is the time needed for the level to fall by half in the phase considered. `CC[C@H](C)[C@@H]1NC(=O)[C@H](CCCNC(=N)N)NC(=O)[C@H](CC(=O)O)NC(=O)[C@H](CC(C)C)NC(=O)[C@H](CCCCN)NC(=O)[C@H](CC(C)C)NC(=O)CNC(=O)[C@H](Cc2ccccc2)NC(=O)[C@@H](NC(=O)CNC(=O)[C@H](CCC(=O)O)NC(=O)[C@H](CO)NC(=O)[C@H](CC(C)C)NC(=O)[C@@H](N)CCC(=O)O)CSSC[C@@H](C(=O)O)NC(=O)CNC(=O)[C@H](CC(C)C)NC(=O)CNC(=O)[C@H](CO)NC(=O)[C@H](CCSC)NC(=O)[C@H](CO)NC(=O)CNC1=O` [AT] (H-ELSEGCFGLKLDRIGSMSGLGC-OH; disulfide 6-22 (inferred); N-terminus and C-terminus assumed): the cGMP response relative to 1 uM CNP22 (%) at 0.01 µM at NPR-B (setting [2]) came to 11%. Further, the cGMP response relative to 1 uM CNP22 (%) at 1 µM on NPR-B (setting [3]) amounted to 54%. Further, the half-life at 100 uM in data set [1] (recombinant human neutral endopeptidase (NEP)) was 1 h.
For `CC[C@H](C)[C@@H]1NC(=O)[C@H](CCCNC(=N)N)NC(=O)[C@H](CC(=O)O)NC(=O)[C@H](CC(C)C)NC(=O)[C@H](CCCCN)NC(=O)[C@H](CC(C)C)NC(=O)CNC(=O)[C@H](Cc2ccccc2)NC(=O)[C@@H](NC(=O)CNC(=O)[C@H](CCCCN)NC(=O)[C@H](CO)NC(=O)[C@H](CC(C)C)NC(=O)CNC(=O)CCOCCOCCOCCOCCOCCOCCOCCOCCOCCOCCOCCOC)CSSC[C@@H](C(=O)O)NC(=O)CNC(=O)[C@H](CC(C)C)NC(=O)CNC(=O)[C@H](CO)NC(=O)[C@H](CCSC)NC(=O)[C@H](CO)NC(=O)CNC1=O` [PEO12-CNP22], the cGMP response relative to 1 uM CNP22 (%) at 0.01 µM on NPR-B (setting [2]) was determined as 12 ± 7%. The cGMP response relative to 1 uM CNP22 (%) at 1 µM on NPR-B (setting [3]) was found to be 57 ± 18%. Besides, the half-life at 100 uM in data set [1] is at least 2.67 h.
In the case of `CC[C@H](C)[C@@H]1NC(=O)[C@H](CCCNC(=N)N)NC(=O)[C@H](CC(=O)O)NC(=O)[C@H](CC(C)C)NC(=O)[C@H](CCCCN)NC(=O)[C@H](CC(C)C)NC(=O)CNC(=O)[C@H](Cc2ccccc2)NC(=O)[C@@H](NC(=O)CNC(=O)[C@H](CCCCN)NC(=O)[C@H](CO)NC(=O)[C@H](CC(C)C)NC(=O)CNC(=O)[C@H](CCCCN)NC(=O)[C@@H]2CCCN2C(=O)[C@H](CC(N)=O)NC(=O)[C@H](C)NC(=O)CNC(=O)[C@H](CCCCN)NC(=O)[C@H](Cc2ccc(O)cc2)NC(=O)[C@H](CCCCN)NC(=O)[C@H](CCCNC(=N)N)NC(=O)[C@H](C)NC(=O)[C@H](CC(N)=O)NC(=O)[C@@H]2CCCN2C(=O)[C@H](Cc2c[nH]cn2)NC(=O)[C@H](CCC(=O)O)NC(=O)[C@H](CCC(N)=O)NC(=O)CN)CSSC[C@@H](C(=O)O)NC(=O)CNC(=O)[C@H](CC(C)C)NC(=O)CNC(=O)[C@H](CO)NC(=O)[C@H](CCSC)NC(=O)[C@H](CO)NC(=O)CNC1=O` [CS] (H-GQEHPNARKYKGANPKGLSKGCFGLKLDRIGSMSGLGC-OH; disulfide 22-38 (inferred); N-terminus and C-terminus assumed), on NPR-B (setting [2]), the cGMP response relative to 1 uM CNP22 (%) at 0.01 µM was 19%. Moreover, at NPR-B (setting [3]), the cGMP response relative to 1 uM CNP22 (%) at 1 µM turned out to be 61%. In addition, in data set [1], the half-life at 100 uM was over 2.67 h.
With `CC[C@H](C)[C@@H]1NC(=O)[C@H](CCCNC(=N)N)NC(=O)[C@H](CC(=O)O)NC(=O)[C@H](CC(C)C)NC(=O)[C@H](CCCCN)NC(=O)[C@H](CC(C)C)N(C)C(=O)CNC(=O)[C@H](Cc2ccccc2)NC(=O)[C@@H](NC(=O)CNC(=O)[C@H](CCCCN)NC(=O)[C@H](CO)NC(=O)[C@H](CC(C)C)NC(=O)CN)CSSC[C@@H](C(=O)O)NC(=O)CNC(=O)[C@H](CC(C)C)N(C)C(=O)CNC(=O)[C@H](CO)NC(=O)[C@H](CCSC)NC(=O)[C@H](CO)NC(=O)CNC1=O` [K], at NPR-B (NIH3T3, […]), the cGMP response relative to 1 uM CNP22 (%) at 0.01 µM worked out at 1% and the cGMP response relative to 1 uM CNP22 (%) at 1 µM is 1%. The compound further yielded a half-life at 100 uM in data set [1] of 1.33 h.
Consider `CC[C@H](C)[C@@H]1NC(=O)[C@H](CCCNC(=N)N)NC(=O)[C@H](CC(=O)O)NC(=O)[C@H](CC(C)C)NC(=O)[C@H](CCCCN)NC(=O)[C@H](CC(C)C)NC(=O)CNC(=O)[C@H](Cc2ccccc2)NC(=O)[C@@H](NC(=O)CNC(=O)[C@H](CCCNC(=N)N)NC(=O)[C@H](CO)NC(=O)[C@H](CC(C)C)NC(=O)CNC(=O)[C@H](CCCNC(=N)N)NC(=O)[C@@H](N)CCC(=O)O)CSSC[C@@H](C(=O)O)NC(=O)CNC(=O)[C@H](CC(C)C)NC(=O)CNC(=O)[C@H](CO)NC(=O)[C@H](CCSC)NC(=O)[C@H](CO)NC(=O)CNC1=O` [BA] (H-ERGLSRGCFGLKLDRIGSMSGLGC-OH; disulfide 8-24 (inferred); N-terminus and C-terminus assumed), for which the cGMP response relative to 1 uM CNP22 (%) at 0.01 µM on NPR-B (setting [2]) is 38 ± 10%. Moreover, the cGMP response relative to 1 uM CNP22 (%) at 1 µM at NPR-B (setting [3]) was determined as 113 ± 10%. The half-life at 100 uM in data set [1] was determined as 1.5 h.
For `CCCCCCC(=O)N[C@@H](CCC(=O)O)C(=O)N[C@@H](CC(C)C)C(=O)N[C@@H](CO)C(=O)N[C@@H](CCCCN)C(=O)NCC(=O)N[C@H]1CSSC[C@@H](C(=O)O)NC(=O)CNC(=O)[C@H](CC(C)C)NC(=O)CNC(=O)[C@H](CO)NC(=O)[C@H](CCSC)NC(=O)[C@H](CO)NC(=O)CNC(=O)[C@H]([C@@H](C)CC)NC(=O)[C@H](CCCNC(=N)N)NC(=O)[C@H](CC(=O)O)NC(=O)[C@H](CC(C)C)NC(=O)[C@H](CCCCN)NC(=O)[C@H](CC(C)C)NC(=O)CNC(=O)[C@H](Cc2ccccc2)NC1=O` [BB] (Heptanoyl-ELSKGCFGLKLDRIGSMSGLGC-OH; disulfide 6-22 (inferred); C-terminus assumed), at NPR-B (NIH3T3, […]), the cGMP response relative to 1 uM CNP22 (%) at 0.01 µM came to 32 ± 4% and the cGMP response relative to 1 uM CNP22 (%) at 1 µM was found to be 84 ± 19%. The half-life at 100 uM in data set [1] was in the range of 0.75 to 1.08 h.
As for `CC[C@H](C)[C@@H]1NC(=O)[C@H](CCCNC(=N)N)NC(=O)[C@H](CC(=O)O)NC(=O)[C@H](CC(C)C)NC(=O)[C@H](CCCCN)NC(=O)[C@H](CC(C)C)NC(=O)CNC(=O)[C@H](Cc2ccccc2)NC(=O)[C@@H](NC(=O)CNC(=O)[C@H](CCCNC(=N)N)NC(=O)[C@H](CO)NC(=O)[C@H](CC(C)C)NC(=O)CNC(=O)[C@@H](N)CCCNC(=N)N)CSSC[C@@H](C(=O)O)NC(=O)CNC(=O)[C@H](CC(C)C)NC(=O)CNC(=O)[C@H](CO)NC(=O)[C@H](CCSC)NC(=O)[C@H](CO)NC(=O)CNC1=O` [AZ] (H-RGLSRGCFGLKLDRIGSMSGLGC-OH; disulfide 7-23 (inferred); N-terminus and C-terminus assumed), the cGMP response relative to 1 uM CNP22 (%) at 0.01 µM on NPR-B (setting [2]) stood at 54 ± 11%. In addition, on NPR-B (setting [3]), the cGMP response relative to 1 uM CNP22 (%) at 1 µM was determined as 106 ± 15%. For the same compound, in data set [1], the half-life at 100 uM is at least 2.67 h.
In the case of `CC[C@H](C)[C@@H]1NC(=O)[C@H](CCCNC(=N)N)NC(=O)[C@H](CC(=O)O)NC(=O)[C@H](CC(C)C)NC(=O)[C@H](CCCCN)NC(=O)[C@H](CC(C)C)NC(=O)CNC(=O)[C@H](Cc2ccccc2)NC(=O)[C@@H](NC(=O)CNC(=O)CNC(=O)[C@H](CO)NC(=O)[C@H](CC(C)C)NC(=O)CNC(=O)CCOCCOCCOCCOCCOCCOCCOCCOCCOCCOCCOCCOCCNC(=O)CCCC[C@@H]2SC[C@@H]3NC(=O)N[C@@H]32)CSSC[C@@H](C(=O)O)NC(=O)CNC(=O)[C@H](CC(C)C)NC(=O)CNC(=O)[C@H](CO)NC(=O)[C@H](CCSC)NC(=O)[C@H](CO)NC(=O)CNC1=O` [(PEO12)-Biotin-CNP22, K4G] ({Biotin-PEG12}-GLSGGCFGLKLDRIGSMSGLGC-OH; disulfide 6-22; C-terminus assumed), at NPR-B (NIH3T3, […]), the cGMP response relative to 1 uM CNP22 (%) at 0.01 µM is 10% and the cGMP response relative to 1 uM CNP22 (%) at 1 µM was found to be 27%. The half-life at 100 uM in data set [1] was 1.67 h.
